Patent US20240180881A1, “METHODS FOR DECREASING RESISTANCE TO CHEMOTHERAPY” (National Institute of Immunology, priority 2022, published 2024)
Read-outs that look alike come from different tables or passages of the source.

Columns and labels:
HCT116 WT cells = assay: MTT assay, chemotherapeutic drug gradient with or without disruptor; format: cell-based; settings: for EC50: MTT, 72 hours
Method: (§1) The three resistant lines and their wildtype counterpart HCT116 were exposed to a gradient of CPT, CDDP or 1-OHP.
(§2) Concentrations of CPT used: 0.140 nM, 20 nM, 50 nM, 1000 nM. Concentration of 1-OHP: 0.14 μM, 2 μM, 4 μM, 6 μM, 8 μM. Concentrations of CDDP used: 0.140 μM, 2 μM, 5 μM, 10 μM. The percentage of viable cells were determined by MTT assays (FIG. 12A-12C). The data in FIG. 12A and FIG. 12C is from three independent experiments and the data in FIG. 12B is from nine independent experiments. […] The levels of MRP2, MRP3, MRP5, MXR were quantitated from three independent experiments. […] Specifically, HCT116 IC60 CPTR cells were transfected with the HR substrate for 72 hours and the levels of HR was determined (FIG. 6A). The data is from three independent experiments. […] The number of soft agar colonies in each condition were counted. The data is from three independent experiments.
To generate camptothecin and cisplatin resistant cells (named as HCT116 IC60 CPT^R, HCT116 IC60 CDDP^R respectively), HCT116 wild type were seeded in a 10 cm dish to a confluency of 80%. The IC20 concentrations of cisplatin (3.38 μM) and camptothecin (12.6 nM) was added for 2 hours and 6 hours, respectively. Post treatment, the cells were washed twice with 1×PBS and fresh media was added. After every 48 hours, the media was changed and IC20 concentration of the drugs were added only if the confluency of cells was at least 80%. […] Resistant index was calculated using the following formula: Resistant index=IC60 of the resistant cells/IC60 of the parental cells.
Cells were seeded in a 96-well plate overnight. Next day, the culturing media was replaced with Optimem media, followed by incubation with BLM_CPP or SCM_CPP for 1 hr. The final concentrations of the peptides were 450 nM for cisplatin (CDDP) and 180 nM (for all other drugs). […] Post treatment, the cells were washed with 1×PBS and fresh media was added. After 72 hours, MTT assay was carried out to determine the percentage cell viability of the cells with respect to the untreated cells.

HCT116 IC60 1-OHPR cells = settings: read-out: EC50 (μM), HCT116 1-OHP^R + 1-OHP; 1-OHP gradient alone, MTT, 72 hours
Method: as §1, §2
(§3) To generate camptothecin and cisplatin resistant cells (named as HCT116 IC60 CPT^R, HCT116 IC60 CDDP^R respectively), HCT116 wild type were seeded in a 10 cm dish to a confluency of 80%. The IC20 concentrations of cisplatin (3.38 μM) and camptothecin (12.6 nM) was added for 2 hours and 6 hours, respectively. […] Resistant index was calculated using the following formula: Resistant index=IC60 of the resistant cells/IC60 of the parental cells. […]

HCT116 IC60 CDDPR cells = assay: MTT assay, CDDP gradient with or without disruptor; format: cell-based; settings: CDDP gradient alone, 72 hours, read-out: EC50 (μM), HCT116 WT CDDP^R
Method: as §1, §2, §3

[1] = HCT116, used to generate resistant cells

Row | EC50 (HCT116 IC60 CDDPR cells) [µM] | EC50 (HCT116 WT cells; CDDP gradient alone, read-out: EC50 (μM), HCT116 WT) [µM] | Compound | EC50 (HCT116 WT cells; 1-OHP gradient alone, read-out: EC50 (μM), HCT116 WT + 1-OHP) [µM] | EC50 (HCT116 IC60 1-OHPR cells) [µM] | IC40 concentration (HCT116 WT cells; [1]) [µM] | IC60 concentration (HCT116 WT cells; [1]) [µM] | IC20 (HCT116 WT cells; HCT116 wild type, used to generate resistant cells, read-out: IC20 concentration) [µM]
1 |  |  | N[C@@H]1CCCC[C@H]1N.O=C([O-])C(=O)[O-].[Pt+2] [1-OHP, oxaliplatin] | 4.77 | 14.1 |  |  | 
2 | 21.7 | 3.78 | [NH2][Pt]([NH2])([Cl])[Cl] [CDDP, cisplatin] |  |  | 15.5 | 35.09 | 3.38
